Test results: patent US20130029942A1, “COMPOUNDS AND THERAPEUTICAL USES THEREOF” (Myrexis, Inc., priority 2003, published 2013)
Where a name gives a salt, the structure may show the parent alone.

These molecules were tested on P388 murine leukemia cell line (assay: P388 cytotoxicity (ATP-Lite, 72 hours)). Conditions: Mus musculus, P388, 72 hours.
Format: cell-based
Procedure: A P388 murine leukemia cell line was obtained from NCI, Frederick, Md. P388 cells were cultured in RPMI-1640 supplemented with 10% fetal bovine serum, 2 mM Glutamax, 1 mM sodium pyruvate, 0.1 mM non-essential amino acids and 10 mM HEPES. Cells were grown at 37° C. in a humidified 5% CO2 atmosphere. Exponentially growing P388 cells were plated at 5,000 cells/well in a 96-well flat-bottomed microtiter plate (Corning, Costar #3595). […] Cellular viability was determined 72 hours later by measuring intracellular ATP with ATP-Lite assay system. The effect of compounds on cell viability was calculated by comparing the ATP levels of cells exposed to test compound with those of cells exposed to DMSO. […] Data was analyzed by Prism software (GraphPad; San Diego, Calif.) by fitting it to a sigmoidal dose response curve.

Q: How did the IC50 turn out when `CNc1nc2c(c(N(C)c3ccc(OC)cc3)n1)CCCC2` [Example 192, N^4-(4-Methoxy-phenyl)-N^2,N^4-dimethyl-5,6,7,8-tetrahydro-quinazoline-2,4-diamine] was run?
A: 19 nM

Q: For `COc1ccc(N(C)c2nc(CC#N)nc3ccccc23)cc1` [Example 206, {4-[(4-Methoxy-phenyl)-methyl-amino]-quinazolin-2-yl}-acetonitrile], which IC50 is on record?
A: 2 nM

Q: Which IC50 does the source give for `COc1ccc(N(C)c2nc(CN)nc3ccc(Br)cc23)cc1` [Example 219, (2-Aminomethyl-6-bromo-quinazolin-4-yl)-(4-methoxy-phenyl)-methyl-amine] here?
A: 250 nM

Q: How did the IC50 turn out when `COc1ccc(N(C)c2nc(C(C)(C)C#N)nc3ccccc23)cc1` [Example 231, 2-{4-[(4-Methoxy-phenyl)-methyl-amino]-quinazolin-2-yl}-2-methyl-propionitrile] was run?
A: 37 nM

Q: With `COc1ccc(N(C)c2nc(NCCO)nc3ccc([N+](=O)[O-])cc23)cc1` [Example 186, 2-{4-[(4-Methoxy-phenyl)-methyl-amino]-6-nitro-quinazolin-2-ylamino}-ethanol] as the molecule, how does the IC50 read?
A: 1800 nM

Q: With `COc1ccc(N(C)c2nc(NCCO)nc3c2CCCC3)cc1` [Example 194, 2-{4-[(4-Methoxy-phenyl)-methyl-amino]-5,6,7,8-tetrahydro-quinazolin-2-ylamino}-ethanol] as the molecule, how does the IC50 read?
A: 20 nM

Q: How did the IC50 turn out when `COc1ccc(N(C)c2nc(C(F)(F)F)nc3ccccc23)cc1` [Example 199, (4-Methoxy-phenyl)-methyl-(2-trifluoromethyl-quinazolin-4-yl)-amine] was run?
A: 3 nM

Q: How did the IC50 turn out when `CCOc1ccc(N(C)c2nc(CN)nc3ccccc23)cc1Cl` [Example 261] was run?
A: 9 nM

Q: With `CC(C)Oc1ccc(N(C)c2nc(CN)nc3ccccc23)cc1` [Example 217, (2-Aminomethyl-quinazolin-4-yl)-(4-isopropoxy-phenyl)-methyl-amine] as the molecule, how does the IC50 read?
A: 18 nM

Q: `CONc1nc2c(c(N(C)c3ccc(OC)cc3)n1)CCCC2` [Example 190, N-{4-[(4-Methoxy-phenyl)-methyl-amino]-5,6,7,8-tetrahydro-quinazolin-2-yl}-O-methyl-hydroxylamine] was tested. Which IC50 did it give?
A: 6 nM

Q: `CC(C)Oc1ccc(N(C)c2nc(CN)nc3ccc(N)cc23)cc1` [Example 220, 2-Aminomethyl-N^4-(4-isopropoxy-phenyl)-N^4-methyl-quinazoline-4,6-diamine] was tested. Which IC50 did it give?
A: 870 nM

Q: `COc1ccc(N(C)c2nc(N(C)C)nc3ccccc23)cc1OC` [Example 168, N^4-(3,4-Dimethoxy-phenyl)-N^2,N^2,N^4-trimethyl-quinazoline-2,4-diamine] was tested. Which IC50 did it give?
A: 45 nM

Q: With `CONc1nc2c(c(N(C)c3ccc(OC)cc3)n1)CCC2` [Example 197, N-{4-[(4-Methoxy-phenyl)-methyl-amino]-6,7-dihydro-5H-cyclopentapyrimidin-2-yl}-O-methyl-hydroxylamine] as the molecule, how does the IC50 read?
A: 8 nM

Q: With `CCOc1ccc(N(C)c2nc(C)nc3ccc([N+](=O)[O-])cc23)cc1` [Example 207, (4-Ethoxy-phenyl)-methyl-(2-methyl-6-nitro-quinazolin-4-yl)-amine] as the molecule, how does the IC50 read?
A: 17 nM

Q: For `COc1ccc(N(C)c2nc(CNC(=O)[C@H](C)N)nc3ccccc23)cc1` [Example 238, (S)-2-Amino-N-{4-[(4-methoxy-phenyl)-methyl-amino]-quinazolin-2-ylmethyl}-propionamide], which IC50 is on record?
A: 12 nM

Q: For `CCOc1ccc(N(C)c2nc(CN)nc3ccccc23)c(F)c1` [Example 237, (2-Aminomethyl-quinazolin-4-yl)-(4-ethoxy-2-fluoro-phenyl)-methyl-amine], which IC50 is on record?
A: 15 nM

Q: `COc1ccc(N(C)c2nc(C)nc3ccc(N)cc23)c(F)c1` [Example 222, N^4-(2-Fluoro-4-methoxy-phenyl)-2,N^4-dimethyl-quinazoline-4,6-diamine] was tested. Which IC50 did it give?
A: 6 nM

Q: How did the IC50 turn out when `Cc1nc(N(C)c2ccc(OC(F)F)cc2)c2cc(N)ccc2n1` [Example 216, N^4-(4-Difluoromethoxy-phenyl)-2,N^4-dimethyl-quinazoline-4,6-diamine] was run?
A: 20 nM

Q: `COc1ccc(N(C)c2nc(NCCCO)nc3ccccc23)cc1` [Example 180, 3-{4-[(4-Methoxy-phenyl)-methyl-amino]-quinazolin-2-ylamino}-propan-1-ol] was tested. Which IC50 did it give?
A: 5 nM

Q: `CCOc1ccc(N(C)c2nc(CN)nc3ccccc23)cc1` [Example 211, (2-Aminomethyl-quinazolin-4-yl)-(4-ethoxy-phenyl)-methyl-amine] was tested. Which IC50 did it give?
A: 15 nM

Q: With `COc1ccc(N(C)c2nc(-c3nnn[nH]3)nc3ccccc23)cc1` [Example 247, (4-Methoxy-phenyl)-methyl-[2-(1H-tetrazol-5-yl)-quinazolin-4-yl]-amine] as the molecule, how does the IC50 read?
A: 60 nM

Q: How did the IC50 turn out when `COc1cccc(CN(C)c2nc(Cl)nc3ccccc23)c1` [Example 179, (2-Chloro-quinazolin-4-yl)-(3-methoxy-benzyl)-methyl-amine] was run?
A: 1400 nM

Q: Which IC50 does the source give for `CCOc1ccc(N(C)c2nc(CN)nc3cccc(F)c23)cc1` [Example 239, (2-Aminomethyl-5-fluoro-quinazolin-4-yl)-(4-ethoxy-phenyl)-methyl-amine] here?
A: 22 nM

Q: How did the IC50 turn out when `CCOc1ccc(N(C)c2nc(C)nc3ccccc23)cc1F` [Example 253, (4-Ethoxy-3-fluoro-phenyl)-methyl-(2-methyl-quinazolin-4-yl)-amine] was run?
A: 3 nM

Q: For `COc1ccc(N(C)c2nc(NCCCCO)nc3ccccc23)cc1` [Example 181, 4-{4-[(4-Methoxy-phenyl)-methyl-amino]-quinazolin-2-ylamino}-butan-1-ol], which IC50 is on record?
A: 13 nM

Q: With `COc1ccc(N(C)c2nc(C)nc3ccc([N+](=O)[O-])cc23)c(F)c1` [Example 221, (2-Fluoro-4-methoxy-phenyl)-methyl-(2-methyl-6-nitro-quinazolin-4-yl)-amine] as the molecule, how does the IC50 read?
A: 58 nM

Q: For `Cc1nc(N(C)c2ccc(OC(F)F)cc2)c2cc([N+](=O)[O-])ccc2n1` [Example 209, (4-Difluoromethoxy-phenyl)-methyl-(2-methyl-6-nitro-quinazolin-4-yl)-amine], which IC50 is on record?
A: 490 nM

Q: How did the IC50 turn out when `COc1ccc(N(C)c2nc(CN3CCCC3=O)nc3ccccc23)cc1` [Example 255, 1-{4-[(4-Methoxy-phenyl)-methyl-amino]-quinazolin-2-ylmethyl}-pyrrolidin-2-one] was run?
A: 610 nM

Q: How did the IC50 turn out when `COc1ccc(N(C)c2nc(NCCN)nc3ccccc23)cc1` [Example 145, N^2-(2-Amino-ethyl)-N^4-(4-methoxy-phenyl)-N^4-methyl-quinazoline-2,4-diamine] was run?
A: 38 nM

Q: How did the IC50 turn out when `COc1ccc(N(C)c2nc(CN)nc3ccc(N)cc23)cc1` [Example 213, 2-Aminomethyl-N4-(4-methoxy-phenyl)-N4-methyl-quinazoline-4,6-diamine] was run?
A: 170 nM

Q: How did the IC50 turn out when `CCOc1ccc(N(C)c2nc(C)nc3ccc(N)cc23)cc1` [Example 214, N^4-(4-Ethoxy-phenyl)-2,N^4-dimethyl-quinazoline-4,6-diamine] was run?
A: 9 nM

Q: How did the IC50 turn out when `COc1ccc(N(C)c2nc(CCN)nc3ccccc23)cc1` [Example 212, [2-(2-Amino-ethyl)-quinazolin-4-yl]-(4-methoxy-phenyl)-methyl-amine] was run?
A: 250 nM

Q: For `CCOC(=O)CNc1nc2c(c(N(C)c3ccc(OC)cc3)n1)CCCC2` [Example 191, {4-[(4-Methoxy-phenyl)-methyl-amino]-5,6,7,8-tetrahydro-quinazolin-2-ylamino}-acetic acid ethyl ester], which IC50 is on record?
A: 470 nM

Q: How did the IC50 turn out when `COc1ccc(N(C)c2nc(CCl)nc3ccccc23)cc1Cl` [Example 242, (3-Chloro-4-methoxy-phenyl)-(2-chloromethyl-quinazolin-4-yl)-methyl-amine] was run?
A: 10 nM

Q: For `CNc1ccc(N(C)c2nc(C)nc3ccc(N)cc23)cc1` [Example 225, 2,N^4-Dimethyl-N^4-(4-methylamino-phenyl)-quinazoline-4,6-diamine], which IC50 is on record?
A: 37 nM

Q: Which IC50 does the source give for `COc1ccc(N(C)c2nc(CNC(=O)c3cccnc3)nc3ccccc23)cc1` [Example 244, N-{4-[(4-Methoxy-phenyl)-methyl-amino]-quinazolin-2-ylmethyl}-nicotinamide] here?
A: 58 nM

Q: With `COc1ccc(N(C)c2nc(CN3CCCCC3=O)nc3ccccc23)cc1` [Example 252, 1-{4-[(4-Methoxy-phenyl)-methyl-amino]-quinazolin-2-ylmethyl}-piperidin-2-one] as the molecule, how does the IC50 read?
A: 1000 nM

Q: How did the IC50 turn out when `CNCCCNc1nc(N(C)c2ccc(OC)cc2)c2ccccc2n1` [Example 228, N^4-(4-Methoxy-phenyl)-N^4-methyl-N^2-(3-methylamino-propyl)-quinazoline-2,4-diamine] was run?
A: 900 nM

Q: With `COc1ccc(N(C)c2nncc3ccc(F)cc23)cc1` [Example 195, (7-Fluoro-phthalazin-1-yl)-(4-methoxy-phenyl)-methyl-amine] as the molecule, how does the IC50 read?
A: 1500 nM

Q: How did the IC50 turn out when `COc1ccc(N(C)c2nc(C)nc3ccc([N+](=O)[O-])cc23)cc1F` [Example 210, (3-Fluoro-4-methoxy-phenyl)-methyl-(2-methyl-6-nitro-quinazolin-4-yl)-amine] was run?
A: 57 nM

Q: With `COc1ccc(N(C)c2nc(NCCCl)nc3ccccc23)cc1` [Example 178, N^2-(2-Chloro-ethyl)-N^4-(4-methoxy-phenyl)-N^4-methyl-quinazoline-2,4-diamine] as the molecule, how does the IC50 read?
A: 18 nM

Q: For `COc1ccc(N(C)c2nc(CNC(=O)CCC(=O)O)nc3ccccc23)cc1` [Example 232, N-{4-[(4-Methoxy-phenyl)-methyl-amino]-quinazolin-2-ylmethyl}-succinamic acid], which IC50 is on record?
A: 950 nM

Q: How did the IC50 turn out when `COc1ccc(N(C)c2nc(CN)nc3ccccc23)c(F)c1` [Example 218, (2-Aminomethyl-quinazolin-4-yl)-(2-fluoro-4-methoxy-phenyl)-methyl-amine] was run?
A: 12 nM

Q: `COc1c(Cl)cc(N(C)c2nc(CN)nc3ccccc23)cc1Cl` [Example 254, (2-Aminomethyl-quinazolin-4-yl)-(3,5-dichloro-4-methoxy-phenyl)-methyl-amine bis(hydrochloride)] was tested. Which IC50 did it give?
A: 5200 nM
